The term Dmax denotes the largest share of the target that was removed. The term Ki denotes a dissociation constant, usually derived from enzyme kinetics or from competition with a known ligand. The low end stands for a stronger hold on the target, the high end for a looser hold on the target.

Molecules are shown by their SMILES.

Experimental findings from US20250263395A1, “COMPOUNDS THAT MEDIATE PROTEIN DEGRADATION AND METHODS OF USE THEREOF” (Monte Rosa Therapeutics AG, priority 2022, published 2025) are described below.

Experiment [1] has as its target CDK2 (Homo sapiens (Human), UniProt P24941). Briefly: CDK2 NanoBiT assay (HiBiT-tagged CDK2 degradation). To be noted: HEK293, HEK293 clonal line, C-terminal HiBiT tag on CDK2, LgBiT; 24 hours. It is filed as cell-based. The procedure: Example 145. NanoBiT Assay
A HEK293 clonal line with a CRISPR knock-in C-terminal HiBiT tag on CDK2 and stably expressing LgBiT protein was obtained from Promega (Madison, WI). Cells were plated at 5000 cells per well using Multiflo (BioTek) in 384-well white solid bottom plates (Corning, 3570BC) in 25 ul volume in DMEM media (DMEM, high glucose, HEPES, no phenol red (ThermoFisher Scientific, 21063029)) containing 10% FBS (Corning, 35-075-CV), 1% Peniciliin/Streptomycin ((ThermoFisher Scientific, 15140-122), and 1% Endurazine (Nano-Glo Endurazine Live Cell Substrate (Promega, N2571)). Cells were incubated for 16 hours at 37 C, 5% CO2. 75 nL of a compound at 30 μM were dosed into the plate using an Echo® 650 liquid handler (Labcyte). Cells were incubated at 37° C., 5% CO2 for 24 hours and then signal was read on a Pherastar FSX using “LUM plus” optic module.
Analysis was performed in Scinamic (Scinamic, Cambridge, MA). Luminescence response (R) was calculated by the formula: response=100*(S−N)/(P−N) where S is the signal of the well, N and P the mean negative and positive control values respectively of the same plate. The luminescence response was then fitted in Scinamic using a 3-parameter agonist logistic fit (hillslope=1, EC50>0, top/bottom unconstrained).
(In general: With HiBiT, luminescence reflects the tagged protein that the partner subunit can reach.)

For experiment [2], the target named is CRBN-DDB1 (Homo sapiens (Human), UniProt Q96SW2). The experiment is described as follows: CRBN HTRF assay (Cy5-Thalidomide probe displacement). Format: binding. To be noted: CRBN-DDB1 2.5 nM, Cy5-Thalidomide 100 nM, 30 min; Ki from geometric mean IC50 by Cheng-Prusoff. The procedure:
Compound activity was monitored in a Homogenous Time-Resolved Fluorescence (HTRF) assay using 1-[5-({2-[2-(2-{[2-(2,6-dioxopiperidin-3-yl)-1,3-dioxo-2,3-dihydro-1H-isoindol-4-yl]oxy}acetamido)ethoxy]ethyl}carbamoyl)pentyl]-3,3-dimethyl-2-[(1E,3E)-5-[(2E)-1,3,3-trimethyl-5-sulfo-2,3-dihydro-1H-indol-2-ylidene]penta-1,3-dien-1-yl]-3H-indol-1-ium-5-sulfonate as a fluorescent probe. Biochemical assays were conducted in Greiner white 384 well HiBase plates (Cat. No 784075-25) in 10 μL total volume. A one pot detection solution of CRBN-DDB1 (2.5 nM), Anti-His Terbium Cryptate Gold (1×, PerkinElmer Cat. #: 61HI2TLB), and Cy5-Thalidomide (100 nM, Tenova Cat.: T52461) was prepared in 20 mM HEPES, 20 mM NaCl, 0.2 mM TCEP, 0.2 mM EDTA, and 0.005% Tween20 was dispensed to each assay plate. Compounds were stored in dry, ambient temperatures at 10 mM. A 10-point, 1:3 dilution series was prepared from 10 mM stock concentrations in Echo-compatible LDV plates. 10 nL of each compound dilution series was dispensed into assays wells using an Echo 650 (Labcyte inc. USA). 10 nL of 10 mM Lenalidomide was transferred into the active-control wells for the assay and 10 nL of DMSO was transferred into the neutral-control wells. The assay was then allowed to incubate for 30 min at ambient temperature after transferring compound. Plate measurements were taken on a Pherastar FSX (BMG Labtech, Germany) using the HTRF Red filter (Ex. 337 nm, em1: 620 nm, em2: 665 nm) (Flashes: 50, Integration time: 60-400 us, Z-height: 10 mm, Ratio-multiplier: 10,000). The HTRF signal was then subsequently normalized to the neutral and active controls. Analysis and IC50 values were derived using KNIME analytics (KNIME Zurich) transformation and fitting within Collaborative Drug Discovery (Collaborative Drug Discovery USA). Ki was derived from the geometric mean of the IC50 values using the Cheng-Prustoff transformation.
On the technique in general: TR-FRET usually uses a lanthanide donor and a delayed reading to cut background.

CRBN-DDB1, sequence (Q96SW2 whole entry): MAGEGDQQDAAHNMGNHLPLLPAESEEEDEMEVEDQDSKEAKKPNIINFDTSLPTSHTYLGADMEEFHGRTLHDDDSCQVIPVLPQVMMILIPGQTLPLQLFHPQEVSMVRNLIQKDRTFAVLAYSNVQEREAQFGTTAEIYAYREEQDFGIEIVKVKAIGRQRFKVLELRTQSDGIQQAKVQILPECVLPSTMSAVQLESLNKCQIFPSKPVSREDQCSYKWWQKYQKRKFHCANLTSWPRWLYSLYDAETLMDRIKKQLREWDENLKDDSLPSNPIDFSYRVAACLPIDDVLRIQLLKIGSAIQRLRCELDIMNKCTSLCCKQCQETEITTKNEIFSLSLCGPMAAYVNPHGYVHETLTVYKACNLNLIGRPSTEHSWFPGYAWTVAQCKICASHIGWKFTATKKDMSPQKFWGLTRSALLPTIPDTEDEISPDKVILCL
CRBN-DDB1, sequence (Q16531 whole entry partner): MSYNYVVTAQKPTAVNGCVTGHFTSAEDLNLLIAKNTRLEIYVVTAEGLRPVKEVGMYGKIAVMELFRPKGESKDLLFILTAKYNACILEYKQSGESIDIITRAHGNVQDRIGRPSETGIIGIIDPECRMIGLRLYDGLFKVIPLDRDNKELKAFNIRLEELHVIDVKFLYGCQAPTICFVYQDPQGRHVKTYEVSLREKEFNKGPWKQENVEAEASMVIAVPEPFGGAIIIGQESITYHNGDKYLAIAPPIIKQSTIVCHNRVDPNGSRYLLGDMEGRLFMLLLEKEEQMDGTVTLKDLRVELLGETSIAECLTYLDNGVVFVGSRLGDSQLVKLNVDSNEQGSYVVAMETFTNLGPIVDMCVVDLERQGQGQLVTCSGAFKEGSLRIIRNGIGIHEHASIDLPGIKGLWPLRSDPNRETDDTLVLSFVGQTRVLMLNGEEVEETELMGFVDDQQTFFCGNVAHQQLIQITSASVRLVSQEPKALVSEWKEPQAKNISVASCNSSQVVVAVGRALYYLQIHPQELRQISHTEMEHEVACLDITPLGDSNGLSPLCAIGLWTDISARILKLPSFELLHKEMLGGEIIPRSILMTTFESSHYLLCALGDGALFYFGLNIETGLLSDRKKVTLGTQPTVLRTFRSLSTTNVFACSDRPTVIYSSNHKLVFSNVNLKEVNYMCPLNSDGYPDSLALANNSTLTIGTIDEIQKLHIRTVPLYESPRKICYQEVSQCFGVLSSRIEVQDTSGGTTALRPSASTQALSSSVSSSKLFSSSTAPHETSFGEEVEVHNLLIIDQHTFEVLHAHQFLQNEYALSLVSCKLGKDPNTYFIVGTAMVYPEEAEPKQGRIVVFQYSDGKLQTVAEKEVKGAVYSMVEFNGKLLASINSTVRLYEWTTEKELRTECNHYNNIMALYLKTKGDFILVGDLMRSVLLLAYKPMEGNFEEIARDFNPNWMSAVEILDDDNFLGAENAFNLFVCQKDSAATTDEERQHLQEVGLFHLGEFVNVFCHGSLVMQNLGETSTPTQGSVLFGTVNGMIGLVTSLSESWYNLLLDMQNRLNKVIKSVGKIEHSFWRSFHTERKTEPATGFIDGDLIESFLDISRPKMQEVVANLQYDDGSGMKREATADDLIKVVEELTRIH

For `CN(C(=O)C12CC(OC(=O)NC3CN(c4cc(F)c(C5CCC(=O)NC5=O)c(F)c4)C3)(C1)C2)c1ccc(Cl)cc1` (stereo not shown) [Compound 129, 3-((4-chlorophenyl)(methyl)carbamoyl)bicyclo[1.1.1]pentan-1-yl (1-(4-(2,6-dioxopiperidin-3-yl)-3,5-difluorophenyl)azetidin-3-yl)carbamate], in experiment [1], the Dmax is 50 to 80%. Also, the Ki in experiment [2] was at most 100 nM.

Take `CN(C(=O)N1CC(OC(=O)NC2CN(c3cc(F)c(C4CCC(=O)NC4=O)c(F)c3)C2)C1)c1cccc(Cl)c1` (stereo not shown) [Compound 8, 1-((3-chlorophenyl)(methyl)carbamoyl)azetidin-3-yl (1-(4-(2,6-dioxopiperidin-3-yl)-3,5-difluorophenyl)azetidin-3-yl)carbamate]: the Dmax in experiment [1] was over 80%. Further, the Ki in experiment [2] is at most 100 nM.

Consider `CN(C(=O)N1CC[C@H](OC(=O)NC2CN(c3cc(F)c(C4CCC(=O)NC4=O)c(F)c3)C2)C1)C1CC1` (stereo partly drawn) [Compound 16, (S)-1-(cyclopropyl(methyl)carbamoyl)pyrrolidin-3-yl (1-(4-(2,6-dioxopiperidin-3-yl)-3,5-difluorophenyl)azetidin-3-yl)carbamate], for which the maximal degradation (Dmax) in experiment [1] is 10 to 50%. In experiment [2], this compound registered a Ki of at most 100 nM.

The compound `O=C1CCC(c2c(F)cc(N3CC(Nc4nnc(CCC5CC5)o4)C3)cc2F)C(=O)N1` (stereo not shown) [Compound 127, 3-(4-(3-((5-(2-cyclopropylethyl)-1,3,4-oxadiazol-2-yl)amino)azetidin-1-yl)-2,6-difluorophenyl)piperidine-2,6-dione] gave a Dmax in experiment [1] of 10 to 50%. In addition, in experiment [2], the Ki is at most 100 nM.

In experiment [1], `COc1c(N2CC(Nc3nnc(-c4ccc(OC(F)(F)F)cc4)o3)C2)ccc(C2CCC(=O)NC2=O)c1F` (stereo not shown) [Compound 90, 3-(2-fluoro-3-methoxy-4-(3-((5-(4-(trifluoromethoxy)phenyl)-1,3,4-oxadiazol-2-yl)amino)azetidin-1-yl)phenyl)piperidine-2,6-dione] came in with a Dmax of over 80%. Besides, the Ki in experiment [2] was in the range of 100 to 1000 nM.

`N#Cc1ccc(C(=O)N2CC(OC(=O)NC3CN(c4cc(F)c(C5CCC(=O)NC5=O)c(F)c4)C3)C2)cc1` (stereo not shown) [Compound 20, 1-(4-cyanobenzoyl)azetidin-3-yl (1-(4-(2,6-dioxopiperidin-3-yl)-3,5-difluorophenyl)azetidin-3-yl)carbamate]: the Dmax in experiment [1] was 10 to 50%. In experiment [2], this compound registered a Ki of at most 100 nM.

Turning to `CN(C(=O)N1CC(OC(=O)NC2CN(c3cc(F)c(C4CCC(=O)NC4=O)c(F)c3)C2)C1)c1ccc(Cl)cc1` (stereo not shown) [Compound 138, 1-((4-chlorophenyl)(methyl)carbamoyl)azetidin-3-yl (1-(4-(2,6-dioxopiperidin-3-yl)-3,5-difluorophenyl)azetidin-3-yl)carbamate], the Dmax in experiment [1] is 50 to 80%. In addition, the Ki in experiment [2] was at most 100 nM.

`O=C1CCC(c2c(F)cc(N3CC(Nc4cc(C5CC6(CCC6)C5)ccn4)C3)cc2F)C(=O)N1` (stereo not shown) [Compound 106, 3-(2,6-difluoro-4-(3-((4-(spiro[3.3]heptan-2-yl)pyridin-2-yl)amino)azetidin-1-yl)phenyl)piperidine-2,6-dione]: in experiment [1], the Dmax lay in the range of 50 to 80%. Further, in experiment [2], the Ki was at most 100 nM.

The compound `O=C1CCC(c2c(F)cc(N3CC(NC(=O)OC4CN(C(=O)N5CCC5)C4)C3)cc2F)C(=O)N1` (stereo not shown) [Compound 30, 1-(azetidine-1-carbonyl)azetidin-3-yl (1-(4-(2,6-dioxopiperidin-3-yl)-3,5-difluorophenyl)azetidin-3-yl)carbamate] gave a Dmax in experiment [1] of 50 to 80%. Moreover, the inhibitory constant (Ki) in experiment [2] was at most 100 nM.

With `O=C1CCC(c2c(F)cc(N3CC(NC(=O)OCCc4ccccc4)C3)cc2F)C(=O)N1` (stereo not shown) [Compound 34, phenethyl (1-(4-(2,6-dioxopiperidin-3-yl)-3,5-difluorophenyl)azetidin-3-yl)carbamate], the maximal degradation (Dmax) in experiment [1] lay within 50 to 80%. The compound also registered a Ki in experiment [2] of 100 to 1000 nM.

In turn, `Cc1cc(Cl)ccc1N(C)C(=O)C12CC(OC(=O)NC3CN(c4cc(F)c(C5CCC(=O)NC5=O)c(F)c4)C3)(C1)C2` (stereo not shown) [Compound 112, 3-((4-chloro-2-methylphenyl)(methyl)carbamoyl)bicyclo[1.1.1]pentan-1-yl (1-(4-(2,6-dioxopiperidin-3-yl)-3,5-difluorophenyl)azetidin-3-yl)carbamate] returned a Dmax in experiment [1] of 10 to 50%. In experiment [2], this compound gave a Ki of at most 100 nM.

Compound `Cc1c(Cl)cccc1N(C)C(=O)C12CC(OC(=O)NC3CN(c4cc(F)c(C5CCC(=O)NC5=O)c(F)c4)C3)(C1)C2` (stereo not shown) [Compound 115, 3-((3-chloro-2-methylphenyl)(methyl)carbamoyl)bicyclo[1.1.1]pentan-1-yl (1-(4-(2,6-dioxopiperidin-3-yl)-3,5-difluorophenyl)azetidin-3-yl)carbamate] came in with a Dmax in experiment [1] of 10 to 50%. The same compound registered a Ki in experiment [2] of at most 100 nM.

Take `Cc1ccc(C)c(N(C)C(=O)C23CC(OC(=O)NC4CN(c5cc(F)c(C6CCC(=O)NC6=O)c(F)c5)C4)(C2)C3)c1` (stereo not shown) [Compound 111]: the Dmax in experiment [1] fell in the range of 50 to 80%.

In experiment [1], `O=C1CCC(c2c(F)cc(N3CC(NC(=O)OC4CC5(CCCCC5)C4)C3)cc2F)C(=O)N1` (stereo not shown) [Compound 67, spiro[3.5]nonan-2-yl (1-(4-(2,6-dioxopiperidin-3-yl)-3,5-difluorophenyl)azetidin-3-yl)carbamate] returned a Dmax of over 80%. The Ki in experiment [2] is at most 100 nM.

In experiment [1], `Cc1cccc(N(C)C(=O)N2CC(OC(=O)NC3CN(c4cc(F)c(C5CCC(=O)NC5=O)c(F)c4)C3)C2)c1` (stereo not shown) [Compound 10, 1-(methyl(m-tolyl)carbamoyl)azetidin-3-yl (1-(4-(2,6-dioxopiperidin-3-yl)-3,5-difluorophenyl)azetidin-3-yl)carbamate] registered a Dmax of over 80%.

`O=C1CCC(c2c(F)cc(N3CC(NC(=O)OC4CN(C(=O)N5CCCC5)C4)C3)cc2F)C(=O)N1` (stereo not shown) [Compound 32] registered a maximal degradation (Dmax) in experiment [1] of 50 to 80%.

In experiment [1], `Cc1ccnc(N2CC(OC(=O)NC3CN(c4cc(F)c(C5CCC(=O)NC5=O)c(F)c4)C3)C2)c1` (stereo not shown) [Compound 6, 1-(4-methylpyridin-2-yl)azetidin-3-yl (1-(4-(2,6-dioxopiperidin-3-yl)-3,5-difluorophenyl)azetidin-3-yl)carbamate] registered a Dmax of 50 to 80%.

Compound `[2H]C([2H])([2H])N(C(=O)N1CC(OC(=O)NC2CN(c3cc(F)c(C4CCC(=O)NC4=O)c(F)c3)C2)C1)c1ccc(Cl)cc1` (stereo not shown) [Compound 119, 1-((4-chlorophenyl)(methyl-d3)carbamoyl)azetidin-3-yl (1-(4-(2,6-dioxopiperidin-3-yl)-3,5-difluorophenyl)azetidin-3-yl)carbamate] displayed a Ki in experiment [2] of at most 100 nM.

In experiment [1], `O=C1CCC(c2c(F)cc(N3CC(NC(=O)OCC4CC5(CCC5)C4)C3)cc2F)C(=O)N1` (stereo not shown) [Compound 1, spiro[3.3]heptan-2-ylmethyl (1-(4-(2,6-dioxopiperidin-3-yl)-3,5-difluorophenyl)azetidin-3-yl)carbamate] displayed a Dmax of over 80%.

Take `[2H]C([2H])([2H])N(C(=O)N1CC(OC(=O)NC2CN(c3cc(F)c(C4CCC(=O)NC4=O)c(F)c3)C2)C1)c1ccc(C)cc1` (stereo not shown) [Compound 118, 1-((methyl-d3)(p-tolyl)carbamoyl)azetidin-3-yl (1-(4-(2,6-dioxopiperidin-3-yl)-3,5-difluorophenyl)azetidin-3-yl)carbamate]: in experiment [2], the inhibitory constant (Ki) is at most 100 nM.

Take `N#Cc1c(N2CC(NC(=O)OCC3CC4(CCC4)C3)C2)ccc(C2CCC(=O)NC2=O)c1Cl` (stereo not shown) [Compound 85, spiro[3.3]heptan-2-ylmethyl (1-(3-chloro-2-cyano-4-(2,6-dioxopiperidin-3-yl)phenyl)azetidin-3-yl)carbamate]: the Dmax in experiment [1] was 50 to 80%.
